{"source": "paper PMC3912631", "about": "“Bench to Bed Evidences for Pharmacokinetic and Pharmacodynamic Interactions Involving Oseltamivir and Chinese Medicine” (Evidence-based Complementary and Alternative Medicine : eCAM, 2014)", "key": {"[1]": {"experiment": "Rat in situ intestinal perfusion model, effect of CMF1 on absorption of OA", "assay_type": "in vivo", "conditions": "CMF1 6.8 mg/mL vs OA alone (Figure 2)", "protocol": "In view of the consistent effect of CMF1 on OA and OC, further confirmation was performed using rat in situ intestinal perfusion model as described previously. Perfusion concentrations were set at 6.8 mg/mL for CMF1. The flow rate of perfusate applied to the intestinal lumen was set at 0.3 mL/min. Samples obtained from the mesenteric vein were collected into the preweighted 2 mL centrifuge tubes (each containing 30 μL of 10 mg/mL saline solution of dichlorvos) at every 5 min. All collected samples were weighted and centrifuged at 13,000 rpm for 4 min immediately. The plasma samples were stored at −80°C refrigerator until further treated by SPE and analyzed by LC/MS/MS assay as described above."}, "[2]": {"experiment": "Human crossover pharmacokinetic interaction study of WM (Tamiflu) alone or with CMF1", "assay_type": "in vivo, human (Chinese male healthy volunteers)", "conditions": "human; for half-life: read-out: T 1/2 (terminal half-life) (converted); for Tmax: read-out: T max", "protocol": "Normal healthy Chinese male subjects aged 20–45 years were recruited in this study. […] The study was conducted using a single-center, randomized, open-labeled, multiple dose (5 days), two-treatment, two-period, two-sequence crossover design. […] Each subject underwent two treatment sessions (periods I and II), and each session consists of 5-day treatment (twice daily for day 1 to day 4, morning dose for day 5). The two treatment sessions were separated by a washout period of 2 weeks. 250 mL water was used for WM (Tamiflu capsule, 75 mg per dose) administration. […] Drinking water was not allowed from 1 h predose to 1 h postdose except that needed for drug dosing. […] All blood and urine collection was taken on day 5 of each treatment session. […] Blood samples were collected from a catheter, which was placed in the forearm vein before dosing. At the specified time, 5 mL of blood was drawn (except for 0 time and at 2 h which was 10 mL each for additional antiviral activity determination) and stored in vacuette lithium heparin tubes (Greiner Bio-One). […] Plasma samples were collected after centrifugation and then stored at −80°C until assay. Urine was also collected (and the volume was recorded) at pre-dose, 0–4, 4–8, and 8–12 h intervals. […] After mixing and centrifugation, the supernatant was loaded in prewashed Oasis MCX cartridge (1 cc, 30 mg, Waters) and the cartridge was rinsed subsequently with 1% formic acid, water, and methanol followed by vacuum dried for 20 min. The analytes were then eluted with 1 mL of 1% ammonia in methanol. The eluting solvent was dried by a vacuum concentrator and the residue was reconstituted with 200 μL of 0.1% formic acid : methanol (1 : 1 v/v) prior to HPLC/MS/MS analysis using an ABI 2000 Q-Trap triple quadrupole mass spectrometer (Applied Biosystems) coupled with PE-200 series micropumps and autosampler (Perkin-Elmer). […] In human study, trough concentration (C trough) was defined as the minimum concentration obtained and was obtained at 12 h post-dose. […] In human studies, the comparison of WM + CMF1 to WM alone treatments was evaluated using a 90% confidence intervals (90% CI) approach (USFDA guideline, Drug Interactions Studies, September 2006). […] The statistical model included terms describing the effects attributable to sequence, subject (nested in sequence), period, and treatment (formulation). […] Difference in the median T max between both treatments was evaluated using Wilcoxon signed-rank test. For comparison of the human antiviral activities, one-way analysis of variance in conjunction with post hoc Turkey's range test was performed."}, "[3]": {"system": "H3N2", "set-up": "method as in PMID 20215135", "conditions": "read-out: inhibitory concentrations (IC50) against H3N2; cited from earlier work"}, "[4]": {"conditions": "geometric mean ratio of (WM + CMF1)/WM"}, "[5]": {"conditions": "male, in vivo, 75 mg, day 5, WM alone, n = 14, arithmetic mean ± SD"}, "[6]": {"conditions": "male, in vivo, day 5, WM + CMF1, n = 14, arithmetic mean ± SD"}}, "note": "Like-named read-outs stand apart in the source and are kept apart here.", "data": [{"smiles": "CCC(CC)O[C@@H]1C=C(C(=O)O)C[C@H](N)[C@H]1NC(C)=O", "note": "[OC, oseltamivir carboxylate]", "values": [{"measurement": "accumulated amount in rat mesenteric blood in presence of CMF1", "setting": "[1]", "result": "decreased without statistical significance"}, {"measurement": "lowering of 12 h cumulative amount excreted in urine by co-administration of CMF1", "setting": "[2]", "result": "~ 14%"}, {"measurement": "12 h Cum. amt. in urine, geometric mean", "setting": "[2]; WM + CMF1, n = 14", "result": 61224.10, "unit": "µg"}, {"measurement": "12 h Cum. amt. in urine, geometric mean", "setting": "[2]; WM alone, n = 14", "result": 71215.61, "unit": "µg"}, {"measurement": "time to reach peak maximum in plasma", "setting": "[2]; approximate value", "result": "4 to 5", "unit": "h"}, {"measurement": "12 h Cum. amt. in urine", "setting": "[2]; day 5, WM + CMF1, n = 14, arithmetic mean ± SD", "result": "62087 ± 10741", "unit": "µg"}, {"measurement": "12 h Cum. amt. in urine", "setting": "[2]; day 5, WM alone, n = 14, arithmetic mean ± SD", "result": "72851 ± 15312", "unit": "µg"}, {"measurement": "GM Ratio of 12 h Cum. amt. in urine", "setting": "[2]; [4]", "result": 85.97, "unit": "%"}, {"measurement": "GM Ratio of AUC0–12 h", "setting": "[2]; [4]", "result": 91.32, "unit": "%"}, {"measurement": "GM Ratio of C max", "setting": "[2]; [4]", "result": 91.32, "unit": "%"}, {"measurement": "concentration of OC in plasma relative to the respective OA", "setting": "[2]; oral WM", "result": "~ 10 fold"}, {"measurement": "AUC(0-t)", "setting": "[2]; male, in vivo, 75 mg, WM alone, n = 14, read-out: AUC0–12 h, geometric mean", "result": 4450, "unit": "ng·h/mL"}, {"measurement": "Cmax", "setting": "[2]; male, in vivo, 75 mg, WM alone, n = 14, read-out: C max, geometric mean", "result": 526, "unit": "ng/mL"}, {"measurement": "CL renal", "setting": "[2]; male, in vivo, 75 mg, approximate value, read-out: renal clearance (converted)", "result": "~267", "unit": "mL/min"}, {"measurement": "concentration at 12 h", "setting": "[2]; male, in vivo, 75 mg, day 5, WM alone (Tamiflu 75 mg bid), n = 14, arithmetic mean ± SD, read-out: C trough (plasma concentration at 12 h postdose)", "result": "207 ± 67.7", "unit": "ng/mL"}, {"measurement": "AUC(0-t)", "setting": "[2]; male, in vivo, 75 mg, day 5, WM alone, n = 14, arithmetic mean ± SD, read-out: AUC0–12 h", "result": "4580 ± 1160", "unit": "ng·h/mL"}, {"measurement": "Cmax", "setting": "[2]; male, in vivo, 75 mg, day 5, WM alone, n = 14, arithmetic mean ± SD, read-out: C max", "result": "536 ± 102", "unit": "ng/mL"}, {"measurement": "CL renal", "setting": "[2]; male, in vivo, 75 mg, day 5, WM alone, n = 14, arithmetic mean ± SD, read-out: Renal clearance (converted)", "result": 272, "unit": "mL/min"}, {"measurement": "AUC(0-t)", "setting": "[2]; male, in vivo, WM + CMF1, n = 14, read-out: AUC0–12 h, geometric mean", "result": 4070, "unit": "ng·h/mL"}, {"measurement": "Cmax", "setting": "[2]; male, in vivo, WM + CMF1, n = 14, read-out: C max, geometric mean", "result": 481, "unit": "ng/mL"}, {"measurement": "concentration at 12 h", "setting": "[2]; male, in vivo, both WM and WM + CMF1 treatments, approximate value, read-out: mean C trough", "result": "~200", "unit": "ng/mL"}, {"measurement": "concentration at 12 h", "setting": "[2]; male, in vivo, both WM and WM + CMF1 treatments, read-out: mean C trough, molar equivalent", "result": "~704", "unit": "nM"}, {"measurement": "concentration at 2 h", "setting": "[2]; male, in vivo, both treatments (WM and WM + CMF1), read-out: 2 h post-dose plasma concentration", "result": "410 to 436", "unit": "ng/mL"}, {"measurement": "concentration at 12 h", "setting": "[2]; male, in vivo, day 5, WM + CMF1 (10 g per dose), n = 14, arithmetic mean ± SD, read-out: C trough (plasma concentration at 12 h postdose)", "result": "195 ± 51.2", "unit": "ng/mL"}, {"measurement": "AUC(0-t)", "setting": "[2]; male, in vivo, day 5, WM + CMF1, n = 14, arithmetic mean ± SD, read-out: AUC0–12 h", "result": "4140 ± 783", "unit": "ng·h/mL"}, {"measurement": "Cmax", "setting": "[2]; male, in vivo, day 5, WM + CMF1, n = 14, arithmetic mean ± SD, read-out: C max", "result": "487 ± 82.7", "unit": "ng/mL"}, {"measurement": "CL renal", "setting": "[2]; male, in vivo, day 5, WM + CMF1, n = 14, arithmetic mean ± SD, read-out: Renal clearance (converted)", "result": 257, "unit": "mL/min"}, {"measurement": "half-life", "setting": "[2]; [5]", "result": "5.16 ± 1.27", "unit": "h"}, {"measurement": "Tmax", "setting": "[2]; [5]", "result": "4.21 ± 0.97", "unit": "h"}, {"measurement": "half-life", "setting": "[2]; [6]", "result": "5.7 ± 1.35", "unit": "h"}, {"measurement": "Tmax", "setting": "[2]; [6]", "result": "3.5 ± 0.94", "unit": "h"}, {"measurement": "IC50", "setting": "[3]", "result": "0.2 to 0.6", "unit": "nM"}]}]}
